pIC50: −log10 of the molar value.

One assay deals with MDA-MB-231. The assay is described as follows: cells. The conditions noted are these: Homo sapiens, MDA-MB-231, 72 h.
Assay [1] can be described thus: Cytotoxicity against HLF1 cells after 72 hrs by MTT assay. Type of assay: functional, cell-based. The following applies: Homo sapiens, HLF1, 72 h. Background: Tetrazolium assays rely on reduction of a dye to a coloured formazan, in cell work by metabolically active cells.
The test system of the next assay is HeLa. The assay is described as follows: cells. The conditions noted are these: Homo sapiens, 72 h.
The next assay relates to SMMC-7721. The experiment in a line: Cytotoxicity against human SMMC7721 cells after 72 hrs by MTT assay. Type of assay: functional, cell-based. The conditions noted are these: SMMC-7721, 72 h.

Description for HeLa: Cytotoxicity against human HeLa cells after 72 hrs by MTT assay
Description for MDA-MB-231: Cytotoxicity against human MDA-MB-231 cells after 72 hrs by MTT assay

One may read the pIC50 as the negative decadic logarithm of the IC50, by convention in mol/L. `COc1cc([C@@H]2c3cc4c(cc3[C@@H](O[C@@H]3O[C@@H]5CO[C@@H](C)O[C@H]5[C@H](O)[C@H]3O)[C@H]3COC(=O)[C@H]23)OCO4)cc(OC)c1O` [ETOPOSIDE]: the pIC50 in the assay on MDA-MB-231 was 4.53; in assay [1], less than 4.40; in the assay with HeLa, 5.10; in the assay on SMMC-7721, 4.39.

The values are drawn from ChEMBL document CHEMBL4017479, “Design, synthesis and anticancer activity of novel nopinone-based thiosemicarbazone derivatives” (Bioorg Med Chem Lett, 2017).
